Like-named read-outs stand apart in the source and are kept apart here.
How the values were obtained:
Type in all cases: binding
[1] = biological target: T1, His-SUMO-hTRIM21 PRY-SPRY (Homo sapiens, UniProt P19474); assay: SPR fragment screening, human TRIM21 PRY-SPRY
T1 construct: Human TRIM21 PRY-SPRY domain (residues V287-I465, UniProt-ID: P19474); made in house; host or cells: E. coli BL21(DE3)
Procedure: (§1) His-mTRIM21 PRYSPRY and His-SUMO-hTRIM21 PRY-SPRY were immobilized onto flow channels (FC) FC2, FC3, and FC4 of a Series S sensor chip NTA (Cytiva). […] Proteins (10–20 µg mL^−1 in HBS-P+) were injected at 10 µL min^−1 to achieve response levels of 3500–4300 RU for mTRIM21 and 3600–4000 RU for hTRIM21. Flow channel 1 (FC1) was used as a reference surface. Surface deactivation and nickel stripping were achieved using 1 M ethanolamine and 350 mM ethylenediaminetetraacetic acid (EDTA), respectively.
(§2) Fragment screening was conducted by injecting 500 µM fragments diluted in running buffer (HBS-P+ with 1 mM TCEP and 2% (v/v) dimethyl sulfoxide (DMSO)) over all flow-channels for 30 s at 30 µL/min^−1. To account for surface drift, 50 µM of a control compound (Suramin) was injected every 15 fragment injections, and blank injections were performed every 5 fragments. Responses were analyzed by blank subtraction, reference subtraction (FC1), solvent correction, molecular weight adjustment, and drift correction using Biacore T200 Evaluation Software v3.2.1. The binding threshold for fragment hits was set based on the Suramin-binding response level.

[2] = biological target: T2, human TRIM21 PRY-SPRY domain (Homo sapiens, UniProt P19474); assay: Differential scanning fluorimetry (DSF, ΔTm), human TRIM21 PRY-SPRY domain
T2 construct: Human TRIM21 PRY-SPRY domain (residues V287-I465, UniProt-ID: P19474); His6 (N, cleaved yes); SUMO (N, cleaved yes); made in house; host or cells: E. coli BL21(DE3)
Procedure: (§3) Briefly, recombinant murine and human TRIM21 PRY-SPRY domain at a concentration of 8 μM were mixed with 2 mM compound in their respective SEC buffer. SYPRO Orange (5000×, Invitrogen) was added as a fluorescence probe (1 µl per mL). Subsequently, temperature-dependent protein unfolding profiles were measured using the QuantStudio™ 5 realtime PCR machine (Thermo Fisher). Excitation and emission filters were set to 465 nm and 590 nm, respectively. The temperature was raised with a step rate of 3 °C per minute. Data points were analysed with the internal software (Thermal Shift SoftwareTM Version 1.4, Thermo Fisher) using the Boltzmann equation to determine the inflection point of the transition curve.

[3] = biological target: T3, murine TRIM21 PRY-SPRY domain (Mus musculus, UniProt Q62191); assay: Differential scanning fluorimetry (DSF, ΔTm), mouse TRIM21 PRY-SPRY domain
T3 construct: mouse TRIM21 PRY-SPRY domain (residues V291-M470, UniProt-ID: Q62191); made in house; host or cells: E. coli BL21(DE3)
T3 sequence (Q62191 291-470): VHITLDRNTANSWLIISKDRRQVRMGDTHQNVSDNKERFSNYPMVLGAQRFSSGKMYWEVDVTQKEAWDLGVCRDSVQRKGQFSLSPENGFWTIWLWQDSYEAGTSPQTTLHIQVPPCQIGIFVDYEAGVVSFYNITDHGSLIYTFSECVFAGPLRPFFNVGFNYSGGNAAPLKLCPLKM
Procedure: as §3

His-mTRIM21 PRYSPRY = biological target: T4, His-mTRIM21 PRYSPRY (Mus musculus, UniProt Q62191); assay: SPR fragment screening and dose response, mouse TRIM21 PRY-SPRY
T4 construct: mouse TRIM21 PRY-SPRY domain (residues V291-M470, UniProt-ID: Q62191); made in house; host or cells: E. coli BL21(DE3)
T4 sequence (Q62191 291-470): T3 sequence (Q62191 291-470)
Procedure: as §1, §2
The data was solvent-corrected, reference-subtracted (FC1), and blank-subtracted using the T200 Evaluation Software v3.2.1. Sensorgrams were subsequently replotted using Graphpad v.9 software.

[4] = single dose 500 µM fragment, relative response, suramin reference threshold 100 relative RU

T2 sequence (P19474 287-465): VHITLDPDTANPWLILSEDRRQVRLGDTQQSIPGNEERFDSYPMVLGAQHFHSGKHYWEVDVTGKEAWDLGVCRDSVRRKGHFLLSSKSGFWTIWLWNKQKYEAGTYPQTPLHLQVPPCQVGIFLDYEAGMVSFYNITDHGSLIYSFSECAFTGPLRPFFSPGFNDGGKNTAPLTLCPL
T1 sequence (P19474 287-465): as above

Structure (SMILES) | SPR hTRIM21 (Response) [1, 4] | Tm-Shift hTRIM21 ([2]; 2 mM compound, 8 μM protein) [°C] | Tm-shift mTRIM21 ([3]; 2 mM compound, 8 μM protein) [°C] | SPR mTRIM21 (Response) (His-mTRIM21 PRYSPRY; [4]) | SPR hTRIM21 (Response) [1] | Tm-Shift hTRIM21 [2] [°C] | Tm-shift mTRIM21 [3] [°C] | SPR mTRIM21 (Response) (His-mTRIM21 PRYSPRY)
CN(CC(=O)N1CCCCC1)S(C)(=O)=O [Fragment Z363071686] |  |  |  |  | 20.46 | -0.2 | -0.1 | 39.85
Cc1cccc(C(=O)N2CCC(C(N)=O)CC2)c1 [Fragment Z32400357] | 52.75 | -0.1 | -0.4 | 57.58 |  |  |  | 
O=C(COC(F)F)N1CC2CCCC2C1 (centres unmarked) [Fragment Z2072621991] |  |  |  |  | 28.49 | -0.2 | 0 | 46.61
COC1CN(S(=O)(=O)N2CCCC2)C1 [Fragment Z1343518214] |  |  |  |  | 34.32 | 0.2 | -0.1 | 38.32
CC(=O)N1C[C@H]2CC[C@H]1c1ccccc12 [Fragment Z2017861827] |  |  |  |  | 47.45 | -0.2 | -0.7 | 37.47
COCC(=O)NCc1ccccc1 [Fragment Z31478538] | 38.23 | -0.3 | -0.3 | 37.9 |  |  |  | 
O=C(O)COCc1ccccc1 [Fragment Z993967070] |  |  |  |  | 56.18 | 0 | -0.3 | 63.84
CN(C)C(=O)c1ccc2c(c1)CCCN2 [Fragment Z1222331430] |  |  |  |  | 70.74 | -0.2 | -0.2 | 51.36
CCCn1c(NC(=O)CC)nc2ccccc21 [Fragment Z29077827] | 48.46 | -0.7 | -0.6 | 54.53 |  |  |  | 
CCc1nnc(NC(=O)C2CCCO2)s1 (centres unmarked) [Fragment Z26823525] | 48.81 | -0.4 | -0.2 | 54.46 |  |  |  | 
CNS(=O)(=O)Cc1cc(C)on1 [Fragment Z763030030] |  |  |  |  | 44.17 | -0.1 | -0.2 | 42.23
O=C(O)COc1ccc(F)cc1 [Fragment Z56978034] |  |  |  |  | 99.74 | 0 | -0.2 | 107.1
CS(=O)(=O)NCC1CCNCC1 [Fragment Z1741966151] |  |  |  |  | 18.48 | 0.1 | 0.2 | 29.2
O=C(NC1CC1)c1cnn2cccnc12 [Fragment Z285642082] |  |  |  |  | 43.71 | -0.2 | -0.3 | 44.74
O=C(c1ccc2c(c1)OCO2)N1CCCCCC1 [Fragment Z31432226] |  | -0.8 | -0.6 |  |  |  |  | 
CCCc1cc(=O)oc2cc(OC(C)=O)ccc12 [Fragment Z29634868] | 95.03 |  |  | 78.57 |  |  |  | 
CCn1cc(NC(=O)C2CCC2)cn1 [Fragment Z373768900] |  |  |  |  | 21.88 | -0.3 | -0.4 | 20.02
OCc1cn(-c2ccc(Cl)cc2)nn1 [Fragment Z1374778753] |  |  |  |  | 114.8 |  |  | 169.5

More lines, main results first:

SPR hTRIM21 (Response) [1, 4] | Tm-Shift hTRIM21 ([2]; 2 mM compound, 8 μM protein) [°C] | Tm-shift mTRIM21 ([3]; 2 mM compound, 8 μM protein) [°C] | SPR mTRIM21 (Response) (His-mTRIM21 PRYSPRY; [4]) | Structure (SMILES) | SPR hTRIM21 (Response) [1] | Tm-Shift hTRIM21 [2] [°C] | Tm-shift mTRIM21 [3] [°C] | SPR mTRIM21 (Response) (His-mTRIM21 PRYSPRY)
39.09 | 0 | -0.2 | 41.62 | CC(O)c1cnn(C2CCCC2)c1 (centres unmarked) [Fragment Z2004563941] |  |  |  | 
55.59 | -0.4 | -0.4 | 74.94 | CN1CCC(Oc2cccc(F)c2)C1=O (centres unmarked) [Fragment Z1217960891] |  |  |  | 
40.64 | 0 | -0.2 | 60.76 | O=S1(=O)CCN(Cc2ccco2)CC1 [Fragment Z1568344634] |  |  |  | 
46.45 | -0.1 | -0.1 | 50.3 | CC(=O)NCc1ccnc(N(C)C)c1 [Fragment Z374427992] |  |  |  | 
39.64 | -0.1 | 0 | 85.46 | c1cc(NCC2CCCO2)ccn1 (centres unmarked) [Fragment Z1267882044] |  |  |  | 
53.67 | -0.2 | -0.3 | 50.84 | CS(=O)(=O)NCCc1ccccc1 [Fragment Z45617795] |  |  |  | 
61.58 | -0.4 | -0.4 | 63.45 | Cc1nc2[nH]c(C(C)C)cc(=O)n2n1 [Fragment Z111634612] |  |  |  | 
45.3 | -0.4 | -0.4 | 58.5 | CCc1ncc(CNC)s1 [Fragment Z1267773633] |  |  |  | 
48.11 | -0.6 | -0.6 | 47.77 | CC(C)N(C)c1ncnc2c1cnn2C [Fragment Z328695024] |  |  |  | 
79.01 | -0.1 | -0.1 | 106.3 | Nc1ccc(S(=O)(=O)Nc2ccccn2)cc1 [Fragment Z271004858] |  |  |  | 
50.74 | -0.1 | 0 | 53.11 | CCC(NC)c1ccncc1 (centres unmarked) [Fragment Z1250132788] |  |  |  | 
34.19 | -0.2 | -0.2 | 38.54 | NC(=O)N1CCN(C(=O)c2ccco2)CC1 [Fragment Z198194396] |  |  |  | 
28.35 | -0.1 | -0.4 | 27.71 | CS(=O)(=O)NC1CCOC2(CCCC2)C1 (centres unmarked) [Fragment Z1446981563] |  |  |  | 
44.97 | -0.1 | -0.2 | 48.28 | CCc1nc(Cn2ccccc2=O)no1 [Fragment Z1162778919] |  |  |  | 
47.04 | -0.4 | -0.3 | 43.51 | CC(CS(N)(=O)=O)c1ccccc1 (centres unmarked) [Fragment Z1407673036] |  |  |  | 
149.8 | 0 | -0.1 | 171.5 | CC(NC(=O)C1CC1)c1cccnc1 (centres unmarked) [Fragment Z220996120] |  |  |  | 
28.98 | -0.1 | -0.2 | 32.54 | O=C(c1csnn1)N1CCOCC1 [Fragment Z741055844] |  |  |  | 
49.74 | 0 | -0.4 | 49.37 | CNC(=O)c1ccc(S(N)(=O)=O)cc1 [Fragment Z165170770] |  |  |  | 
24.5 | -0.7 | -0.9 | 31.58 | Cc1c(Cl)cccc1NC(=O)[C@@H]1CCCO1 [Fragment Z1545312521] |  |  |  | 
20.86 | -0.2 | -0.1 | 105 | CN1CCOC(CNc2nccs2)C1 (centres unmarked) [Fragment Z1002247062] |  |  |  | 
